Experimental data reported in ChEMBL document CHEMBL6096713, “Tetrazole Is a Novel Zinc Binder Chemotype for Carbonic Anhydrase Inhibition” (ACS Med Chem Lett, 2025).

How the values were obtained:
Carbonic anhydrase 9 = Carbonic anhydrase 9 (Homo sapiens, UniProt Q16790)
Description: Inhibition of human recombinant carbonic anhydrase 9 assessed as inhibition constant incubated for 15 mins by stopped-flow technique

Carbonic anhydrase 2 = Carbonic anhydrase 2 (Homo sapiens, UniProt P00918)
Description: Inhibition of human recombinant carbonic anhydrase 2 assessed as inhibition constant incubated for 15 mins by stopped-flow technique

Carbonic anhydrase 1 = Carbonic anhydrase 1 (Homo sapiens, UniProt P00915)
Description: Inhibition of human recombinant carbonic anhydrase I assessed as inhibition constant incubated for 15 mins by stopped-flow technique

Carbonic anhydrase 12 = Carbonic anhydrase 12 (Homo sapiens, UniProt O43570)
Chain of Carbonic anhydrase 12 (O43570 whole entry): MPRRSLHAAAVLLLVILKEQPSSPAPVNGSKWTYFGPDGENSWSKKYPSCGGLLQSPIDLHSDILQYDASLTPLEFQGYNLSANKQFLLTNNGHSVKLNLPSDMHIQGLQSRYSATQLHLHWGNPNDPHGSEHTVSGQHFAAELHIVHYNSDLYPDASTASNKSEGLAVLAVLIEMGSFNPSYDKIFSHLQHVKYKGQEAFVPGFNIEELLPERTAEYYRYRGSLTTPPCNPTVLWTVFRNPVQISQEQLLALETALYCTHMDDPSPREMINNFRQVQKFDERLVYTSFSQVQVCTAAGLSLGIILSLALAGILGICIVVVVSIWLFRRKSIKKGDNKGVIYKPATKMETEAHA
Description: Inhibition of human recombinant carbonic anhydrase 12 assessed as inhibition constant incubated for 15 mins by stopped-flow technique

Chain of Carbonic anhydrase 1 (P00915 whole entry): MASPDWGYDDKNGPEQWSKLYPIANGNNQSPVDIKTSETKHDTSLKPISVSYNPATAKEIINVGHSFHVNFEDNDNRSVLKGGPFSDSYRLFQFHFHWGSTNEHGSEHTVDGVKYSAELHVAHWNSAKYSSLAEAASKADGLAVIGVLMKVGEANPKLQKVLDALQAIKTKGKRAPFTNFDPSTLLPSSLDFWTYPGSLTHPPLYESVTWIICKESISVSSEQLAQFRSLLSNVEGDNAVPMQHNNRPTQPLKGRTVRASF

`O=C(O)Cc1nnn[nH]1` showed a Ki (Carbonic anhydrase 9) of 7.68 µM, a Ki (Carbonic anhydrase 2) of 5.97 µM and a Ki (Carbonic anhydrase 1) of 4.21 µM. It also gave a Ki (Carbonic anhydrase 12) of 8.21 µM.
